Reference: patent US7173129B2, “Sulfonamide-substituted chalcone derivatives and their use to treat diseases” (Athero Genics, Inc., priority 2003, dated 2007)
pIC50: −log10 of the molar value.

Experiments:
VCAM-1 = experiment: In Vitro VCAM-1 Assay (TNF-α stimulated endothelial cells, cell-surface ELISA); type: cell-based; conditions: primary human aortic (HAEC) or pulmonary (HPAEC) endothelial cells, TNF-α 1 ng/ml, approximately 16 hours, ELISA OD 450 nm
Method: Cell Culture and compound dosing: Cultured primary human aortic (HAEC) or pulmonary (HPAEC) endothelial cells were obtained from Clonetics, Inc., and were used below passage 9. Cells were seeded in 96 well plates such that they would reach 90–95% confluency by the following day. On the following day the cells were stimulated with TNF-α (1 ng/ml) in the presence or absence of compounds dissolved in DMSO such that the final concentration of DMSO is 0.25% or less. To establish a dose curve for each compound, four concentrations in 2- to 5-fold increments were used. Cells were exposed to TNF-α and compounds for approximately 16 hours. The next day the cells were examined under microscope to score for visual signs of toxicity or cell stress.
Following 16 hr exposure to TNF-α and compound the media was discarded and the cells were washed once with Hanks Balanced Salt Solution (HBSS)/Phosphate buffered saline (PBS) (1:1). Primary antibodies against VCAM-1 (0.25 μg/ml in HBSS/PBS+5% FBS) were added and incubated for 30–60 minutes at 37° C. Cells were washed with HBSS/PBS three times, and secondary antibody Horse Radish Peroxidase (HRP)-conjugated goat anti-mouse IgG (1:500 in HBSS/PBS+5% FBS) were added and incubated for 30 minutes at 37° C. Cells were washed with HBSS/PBS four time and TMB substrate were added and incubated at room temperature in the dark until there was adequate development of blue color. The length of time of incubation was typically 5–15 minutes. 2N sulfuric acid was added to stop the color development and the data was collected by reading the absorbance on a BioRad ELISA plate reader at OD 450 nm. The results are expressed as IC50 values (the concentration (micromolar) of compound required to inhibit 50% of the maximal response of the control sample stimulated by TNF-α only).

[1] = Homo sapiens, Endothelial cell, 16 h

COc1cc(OC)c(-c2cccs2)cc1/C=C/C(=O)c1ccc(S(=O)(=O)NCc2cccnc2)cc1 [Example 19, 4-[3E-(2,4-Dimethoxy-5-thien-2-ylphenyl)acryloyl]-N-pyridin-3-ylmethylbenzenesulfonamide]
pIC50 (VCAM-1; [1]): > 5.30
melting point: 167 to 168 °C

COc1cc(OC)c(-c2cccs2)cc1/C=C/C(=O)c1ccc(S(=O)(=O)NCCN2CCOCC2)cc1 [Example 20, 4-[3E-(2,4-Dimethoxy-5-thien-2-ylphenyl)acryloyl]-N-(2-morpholin-4-yl-ethyl)benzenesulfonamide]
pIC50 (VCAM-1; [1]): > 5.30
melting point: 171 to 172 °C

COc1cc(OC)c(-c2cccs2)cc1/C=C/C(=O)c1ccc(S(=O)(=O)NN2CCCCC2)cc1 [Example 22, 4-[3E-(2,4-Dimethoxy-5-thien-2-ylphenyl)acryloyl]-N-piperidin-1-ylbenzenesulfonamide]
pIC50 (VCAM-1; [1]): < 5.00
melting point: 174 to 176 °C

COc1cc(OC)c(-c2cccs2)cc1/C=C/C(=O)c1ccc(S(=O)(=O)NCCCn2ccnc2)cc1 [Example 23, 4-[3E-(2,4-Dimethoxy-5-thien-2-ylphenyl)acryloyl]-N-(3-imidazol-1-ylpropyl)benzenesulfonamide]
pIC50 (VCAM-1; [1]): > 5.30
melting point: 160 to 162 °C

COc1cc(OC)c(-c2cccs2)cc1/C=C/C(=O)c1ccc(S(=O)(=O)NCC(F)(F)F)cc1 [Example 24, 4-[3E-(2,4-Dimethoxy-5-thien-2-ylphenyl)acryloyl]-N-(2,2,2-trifluoroethyl)benzenesulfonamide]
pIC50 (VCAM-1; [1]): > 5.30
melting point: 167 to 168 °C

COc1cc(OC)c(-c2cccs2)cc1/C=C/C(=O)c1ccc(S(=O)(=O)NCC(=O)O)cc1 [Example 26, {4-[3E-(2,4-Dimethoxy-5-thien-2-ylphenyl)acryloyl]benzenesulfonylamino}acetic acid]
pIC50 (VCAM-1; [1]): < 5.00
melting point: 100 to 101 °C

COc1cc(OC)c(-c2cccs2)cc1/C=C/C(=O)c1ccc(S(=O)(=O)NC(C)(C)C(=O)O)cc1 [Example 27, 2-{4-[3E-(2,4-Dimethoxy-5-thien-2-yl-phenyl)acryloyl]benzenesulfonylamino}-2-methylpropionic acid]
pIC50 (VCAM-1; [1]): > 5.00
melting point: 205 °C (dec.)

CNS(=O)(=O)c1ccc(C(=O)/C=C/c2cc(-c3cc4ccccc4n3C)c(OC)cc2OC)cc1 [Example 29, 4-{3E-[2,4-Dimethoxy-5-(1-methyl-1H-indol-2-yl)phenyl]acryloyl}-N-methyl-benzenesulfonamide]
pIC50 (VCAM-1; [1]): > 5.30
melting point: 129 to 131 °C

CONS(=O)(=O)c1ccc(C(=O)/C=C/c2cc(-c3cc4ccccc4n3C)c(OC)cc2OC)cc1 [Example 30, 4-{3E-[2,4-Dimethoxy-5-(1-methyl-1H-indol-2-yl)phenyl]acryloyl}-N-methoxybenzenesulfonamide]
pIC50 (VCAM-1; [1]): > 5.00
melting point: 214 to 216 °C

COc1cc(OC)c(-c2cc3ccccc3n2C)cc1/C=C/C(=O)c1ccc(S(=O)(=O)N(C)C)cc1 [Example 31, 4-{3E-[2,4-Dimethoxy-5-(1-methyl-1H-indol-2-yl)phenyl]acryloyl}-N,N-dimethylbenzenesulfonamide]
pIC50 (VCAM-1; [1]): > 5.00
melting point: 120 to 122 °C

COc1cc(OC)c(-c2cc3ccccc3[nH]2)cc1/C=C/C(=O)c1ccc(S(=O)(=O)N(C)C)cc1 [Example 32, 4-{3E-[5-(1H-Indol-2-yl)-2,4-dimethoxyphenyl]acryloyl}-N,N-dimethylbenzenesulfonamide]
pIC50 (VCAM-1; [1]): > 5.30
melting point: 158 to 162 °C

COc1cc(OC)c(-c2cc3ccccc3n2C)cc1/C=C/C(=O)c1ccc(S(=O)(=O)NO[Si](C)(C)C(C)(C)C)cc1 [Example 33, 4-{3E-[2,4-Dimethoxy-5-(1-methyl-1H-indol-2-yl)phenyl]acryloyl}-N-(tert-butyldimethylsiloxy)benzenesulfonamide]
pIC50 (VCAM-1; Endothelial cell): < 5.00
melting point: 129 to 131 °C

COc1cc(OC)c(-c2cc3ccccc3n2C)cc1/C=C/C(=O)c1ccc(S(=O)(=O)NO)cc1 [Example 34, 4-{3E-[2,4-Dimethoxy-5-(1-methyl-1H-indol-2-yl)phenyl]acryloyl}-N-hydroxybenzenesulfonamide]
pIC50 (VCAM-1; [1]): < 5.00
melting point: > 260 °C

COc1cc(OC)c(-c2cc3ccccc3[nH]2)cc1/C=C/C(=O)c1ccc(S(=O)(=O)NC(=O)C(C)C)cc1 [Example 35, 4-{3E-[5-(1H-Indol-2-yl)-2,4-dimethoxyphenyl]acryloyl}-N-isobutyrylbenzenesulfonamide]
pIC50 (VCAM-1; [1]): > 5.30
melting point: 243 to 245 °C (dec.)

CCCC(=O)NS(=O)(=O)c1ccc(C(=O)/C=C/c2cc(-c3cc4ccccc4n3C)c(OC)cc2OC)cc1 [Example 37, N-Butyryl-4-{3E-[2,4-dimethoxy-5-(1-methyl-1H-indol-2-yl)phenyl]acryloyl}benzenesulfonamide]
pIC50 (VCAM-1; [1]): > 5.30
melting point: 144 to 146 °C

COc1cc(OC)c(N2CCCC2)cc1/C=C/C(=O)c1ccc(S(=O)(=O)Nc2cc(C)on2)cc1 [Example 38, 4-[3E-(2,4-Dimethoxy-5-pyrrolidin-1-yl-phenyl)acryloyl]-N-(5-methyl-isoxazol-3-yl)benzenesulfonamide]
pIC50 (VCAM-1; [1]): > 5.30
melting point: 164 to 165 °C

COc1cc(OCCCO)c(/C=C/C(=O)c2ccc(S(=O)(=O)Nc3cc(C)on3)cc2)cc1-c1cccs1 [Example 39, 4-{3E-[2-(3-Hydroxy-propoxy)-4-methoxy-5-thien-2-ylphenyl]acryloyl}-N-(5-methylisoxazol-3-yl)benzenesulfonamide]
pIC50 (VCAM-1; [1]): > 5.30
melting point: 178 to 182 °C

COc1cc(OC)c(-c2cc3ccccc3[nH]2)cc1/C=C/C(=O)c1ccc(S(=O)(=O)NC(C)=O)cc1 [Example 42, N-Acetyl-4-{3E-[5-(1H-indol-2-yl)-2,4-dimethoxyphenyl]acryloyl}benzenesulfonamide]
pIC50 (VCAM-1; [1]): < 5.00
melting point: 218 to 220 °C

COc1cc(OC)c(-c2cc3ccccc3[nH]2)cc1/C=C/C(=O)c1ccc(S(=O)(=O)[N-]C(C)=O)cc1.[Na+] [Example 43, N-Acetyl-4-{3E-[5-(1H-indol-2-yl)-2,4-dimethoxyphenyl]acryloyl}benzenesulfonamide sodium salt]
pIC50 (VCAM-1; sodium salt): > 5.30
melting point: 240 to 250 °C

COc1cc(OC)c(-c2cccn2C)cc1/C=C/C(=O)c1ccc(S(=O)(=O)Nc2cc(C)on2)cc1 [Example 44, 4-{3E-[2,4-Dimethoxy-5-(1-methyl-1H-pyrrol-2-yl)phenyl]acryloyl}-N-(5-methyl-isoxazol-3-yl)benzenesulfonamide]
pIC50 (VCAM-1; [1]): > 5.30
melting point: 113 to 115 °C

CCC(=O)NS(=O)(=O)c1ccc(C(=O)/C=C/c2cc(-c3cc4ccccc4[nH]3)c(OC)cc2OC)cc1 [Example 45, 4-{3E-[5-(1H-Indol-2-yl)-2,4-dimethoxyphenyl]acryloyl}-N-propionyl-benzenesulfonamide]
pIC50 (VCAM-1; [1]): > 5.30
melting point: 223 to 225 °C

COc1cc(OC)c(-c2cc3ccccc3[nH]2)cc1/C=C/C(=O)c1ccc(S(=O)(=O)NCCCn2ccnc2)cc1 [Example 50, N-(3-Imidazol-1-yl-propyl)-4-{3E-[5-(1H-indol-2-yl)-2,4-dimethoxy-phenyl]acryloyl}benzenesulfonamide]
pIC50 (VCAM-1; [1]): < 5.00
melting point: 197 to 200 °C

COc1cc(OC)c(-c2cc3ccccc3[nH]2)cc1/C=C/C(=O)c1ccc(S(=O)(=O)NCC(=O)O)cc1 [Example 51, (4-{3E-[5-(1H-Indol-2-yl)-2,4-dimethoxyphenyl]acryloyl}benzenesulfonylamino)acetic acid]
pIC50 (VCAM-1; [1]): < 5.00
melting point: 189 to 190 °C

COc1cc(OC)c(N2CCCC2)cc1/C=C/C(=O)c1ccc(S(=O)(=O)Nc2ccccn2)cc1 [Example 52, 4-[3E-(2,4-Dimethoxy-5-pyrrolidin-1-yl-phenyl)-acryloyl]-N-pyridin-2-yl-benzenesulfonamide]
pIC50 (VCAM-1; [1]): > 5.30
melting point: 124 to 128 °C

COc1cc(OC)c(N2CCCC2)cc1/C=C/C(=O)c1ccc(S(=O)(=O)NCc2ccccn2)cc1 [Example 53, 4-[3E-(2,4-Dimethoxy-5-pyrrolidin-1-ylphenyl)acryloyl]-N-pyridin-2-ylmethylbenzenesulfonamide]
pIC50 (VCAM-1; [1]): > 5.30
melting point: 112 to 116 °C

COc1cc(OC)c(N2CCCC2)cc1/C=C/C(=O)c1ccc(S(=O)(=O)NCCCn2ccnc2)cc1 [Example 54, 4-[3E-(2,4-Dimethoxy-5-pyrrolidin-1-ylphenyl)acryloyl]-N-(3-imidazol-1-ylpropyl)benzenesulfonamide]
pIC50 (VCAM-1; [1]): < 5.30
melting point: 140 to 143 °C
